Reference: ChEMBL document CHEMBL1201862, “PubChem BioAssay data set” (2004)
Calls of active or inactive are those of the source.

What was measured:
[1] = biological target: Ras and Rab interactor 1/Tyrosine-protein kinase ABL1 (Homo sapiens, UniProt P00519+Q13671); type: functional;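 also: biochemical TR-FRET dose-response test measuring inhibition of binding between Rin1 and Abl proteins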
[2] = biological target: T1, Corticotropin-releasing factor receptor 2/Corticotropin-releasing factor-binding protein (Homo sapiens, UniProt P24387+Q13324); experiment: Dose Response confirmation of uHTS hits for small molecule antagonists of the CRF-binding protein and CRF-R2 receptor complex.; type: functional; settings: read-out: IC50_Mean
T1 sequence (Q13324 whole entry): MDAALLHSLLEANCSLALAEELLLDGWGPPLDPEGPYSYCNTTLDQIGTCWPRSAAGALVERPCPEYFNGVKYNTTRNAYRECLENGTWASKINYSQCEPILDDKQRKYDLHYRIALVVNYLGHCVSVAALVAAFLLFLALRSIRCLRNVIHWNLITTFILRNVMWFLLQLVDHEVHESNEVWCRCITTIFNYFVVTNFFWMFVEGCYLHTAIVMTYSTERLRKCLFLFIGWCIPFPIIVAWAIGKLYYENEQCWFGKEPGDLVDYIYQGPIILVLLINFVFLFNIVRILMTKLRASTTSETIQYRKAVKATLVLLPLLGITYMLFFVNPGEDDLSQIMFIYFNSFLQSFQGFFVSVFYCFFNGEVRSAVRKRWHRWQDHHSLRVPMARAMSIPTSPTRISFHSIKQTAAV
T1 sequence (P24387 whole entry): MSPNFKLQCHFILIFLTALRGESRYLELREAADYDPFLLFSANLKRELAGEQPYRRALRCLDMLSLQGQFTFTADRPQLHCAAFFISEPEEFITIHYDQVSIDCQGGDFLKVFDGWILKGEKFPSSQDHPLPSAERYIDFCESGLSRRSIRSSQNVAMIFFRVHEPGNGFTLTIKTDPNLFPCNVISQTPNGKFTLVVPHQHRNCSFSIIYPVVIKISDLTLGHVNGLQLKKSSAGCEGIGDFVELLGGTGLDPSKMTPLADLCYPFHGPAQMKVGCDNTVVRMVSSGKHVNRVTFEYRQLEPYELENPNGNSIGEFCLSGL

[3] = biological target: T1, Corticotropin-releasing factor receptor 2/Corticotropin-releasing factor-binding protein; experiment: activators of CRF receptor 2 with binding protein – uHTS hits, confirmation (AID 602473); type: functional; settings: read-out: EC50_Mean
[4] = CRF-BP/CRF-R2 complex antagonists, dose response, cell-based, uHTS hits, 384-well (AID 651639); type: functional, Homo sapiens; settings: read-out: IC50_Mean
[5] = system: Streptococcus sp. 'group A'; experiment: growth inhibition of control SK(-) GAS strain, dose response, counter-screen for streptokinase expression inhibitor project, luminescence, kanamycin, BacTiterGlo, confirmation (AID 1900); type: functional, organism-based
[6] = biological target: T2, Streptokinase A (Streptococcus pyogenes serotype M1, UniProt P10520); experiment: S. pyogenes streptokinase expression inhibitors, potency, dose response, plasminogen activation absorbance, OD405 (AID 1914); type: functional, Streptococcus pyogenes M1 GAS;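 also: secreted streptokinase activity via plasminogen activation per viability signal from cell pellet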
T2 sequence (P10520 whole entry): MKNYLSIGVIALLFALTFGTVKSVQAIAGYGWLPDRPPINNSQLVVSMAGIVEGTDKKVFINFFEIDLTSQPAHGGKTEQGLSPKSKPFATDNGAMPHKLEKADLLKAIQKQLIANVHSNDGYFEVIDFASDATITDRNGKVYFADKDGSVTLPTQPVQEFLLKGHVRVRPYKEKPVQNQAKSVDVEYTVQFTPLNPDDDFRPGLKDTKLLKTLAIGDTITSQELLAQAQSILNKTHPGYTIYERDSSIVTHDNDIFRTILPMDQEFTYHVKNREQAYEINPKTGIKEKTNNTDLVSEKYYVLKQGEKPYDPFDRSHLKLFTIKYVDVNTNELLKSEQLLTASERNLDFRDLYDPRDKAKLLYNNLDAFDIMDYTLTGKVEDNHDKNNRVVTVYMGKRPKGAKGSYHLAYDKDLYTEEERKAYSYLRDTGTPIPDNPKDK

[7] = system: Streptococcus; experiment: Group A Streptococcus viability loss, dose response, counter-screen for streptokinase expression inhibitor project, luminescence, BacTiterGlo (AID 1915); type: functional, organism-based;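 also: potency for reduction of bacterial viability or growth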
[8] = biological target: FAD-linked sulfhydryl oxidase ALR (Homo sapiens, UniProt P55789); experiment: inhibitors of human ALR sulfhydryl oxidase, dose response, biochemical, H2O2 detection, luminescence, cherry-pick (AID 493248)
[9] = biological target: T3, High affinity choline transporter 1 (Homo sapiens, UniProt Q9GZV3); experiment: CHT inhibitors, dose response, cell-based, 5-point CRC, membrane potential dye (AID 504840); type: functional
T3 sequence (Q9GZV3 whole entry): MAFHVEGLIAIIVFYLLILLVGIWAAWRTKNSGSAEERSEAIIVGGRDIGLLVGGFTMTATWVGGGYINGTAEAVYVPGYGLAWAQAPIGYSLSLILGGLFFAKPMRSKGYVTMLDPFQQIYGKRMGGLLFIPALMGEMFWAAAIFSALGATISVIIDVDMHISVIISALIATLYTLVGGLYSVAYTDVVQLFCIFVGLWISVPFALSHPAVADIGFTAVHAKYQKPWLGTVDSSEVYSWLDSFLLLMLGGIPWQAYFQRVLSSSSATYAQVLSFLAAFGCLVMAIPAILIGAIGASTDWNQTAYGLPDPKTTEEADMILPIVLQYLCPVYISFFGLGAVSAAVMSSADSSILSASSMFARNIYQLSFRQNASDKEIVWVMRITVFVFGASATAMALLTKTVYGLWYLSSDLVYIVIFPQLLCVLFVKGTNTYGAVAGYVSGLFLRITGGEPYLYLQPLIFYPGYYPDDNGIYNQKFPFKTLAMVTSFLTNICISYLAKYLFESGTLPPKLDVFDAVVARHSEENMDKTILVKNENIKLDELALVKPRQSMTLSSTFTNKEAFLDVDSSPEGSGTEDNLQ

Chain of Ras and Rab interactor 1/Tyrosine-protein kinase ABL1 (P00519 whole entry): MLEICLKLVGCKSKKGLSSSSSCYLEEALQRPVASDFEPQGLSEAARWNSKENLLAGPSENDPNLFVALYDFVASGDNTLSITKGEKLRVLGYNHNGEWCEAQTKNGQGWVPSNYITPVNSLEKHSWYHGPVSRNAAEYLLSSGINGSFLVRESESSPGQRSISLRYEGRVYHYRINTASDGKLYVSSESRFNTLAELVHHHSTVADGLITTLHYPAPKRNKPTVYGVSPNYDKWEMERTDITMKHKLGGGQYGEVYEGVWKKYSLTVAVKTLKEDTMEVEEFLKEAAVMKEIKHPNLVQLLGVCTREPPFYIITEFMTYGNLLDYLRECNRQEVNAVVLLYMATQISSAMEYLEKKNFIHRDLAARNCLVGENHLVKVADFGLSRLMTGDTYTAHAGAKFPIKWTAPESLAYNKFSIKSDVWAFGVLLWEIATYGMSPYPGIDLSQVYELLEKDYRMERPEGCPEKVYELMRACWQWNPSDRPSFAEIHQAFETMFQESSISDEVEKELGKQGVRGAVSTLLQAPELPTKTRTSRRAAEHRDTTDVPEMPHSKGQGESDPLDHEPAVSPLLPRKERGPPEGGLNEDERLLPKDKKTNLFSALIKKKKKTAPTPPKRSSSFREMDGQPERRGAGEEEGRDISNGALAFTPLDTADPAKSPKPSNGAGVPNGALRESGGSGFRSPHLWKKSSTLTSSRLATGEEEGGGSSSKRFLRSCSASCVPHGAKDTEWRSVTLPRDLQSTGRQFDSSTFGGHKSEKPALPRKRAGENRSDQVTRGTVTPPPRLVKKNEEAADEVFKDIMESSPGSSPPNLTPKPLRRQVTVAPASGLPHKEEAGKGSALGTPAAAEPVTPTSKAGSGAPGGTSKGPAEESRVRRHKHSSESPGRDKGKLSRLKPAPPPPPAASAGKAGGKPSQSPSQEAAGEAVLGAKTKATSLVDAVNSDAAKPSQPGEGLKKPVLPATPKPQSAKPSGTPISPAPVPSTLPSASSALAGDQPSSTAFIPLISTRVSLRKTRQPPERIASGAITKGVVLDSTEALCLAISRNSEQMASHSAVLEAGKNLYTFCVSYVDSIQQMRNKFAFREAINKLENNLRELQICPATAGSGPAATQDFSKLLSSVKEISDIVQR
Chain of Ras and Rab interactor 1/Tyrosine-protein kinase ABL1 (Q13671 whole entry): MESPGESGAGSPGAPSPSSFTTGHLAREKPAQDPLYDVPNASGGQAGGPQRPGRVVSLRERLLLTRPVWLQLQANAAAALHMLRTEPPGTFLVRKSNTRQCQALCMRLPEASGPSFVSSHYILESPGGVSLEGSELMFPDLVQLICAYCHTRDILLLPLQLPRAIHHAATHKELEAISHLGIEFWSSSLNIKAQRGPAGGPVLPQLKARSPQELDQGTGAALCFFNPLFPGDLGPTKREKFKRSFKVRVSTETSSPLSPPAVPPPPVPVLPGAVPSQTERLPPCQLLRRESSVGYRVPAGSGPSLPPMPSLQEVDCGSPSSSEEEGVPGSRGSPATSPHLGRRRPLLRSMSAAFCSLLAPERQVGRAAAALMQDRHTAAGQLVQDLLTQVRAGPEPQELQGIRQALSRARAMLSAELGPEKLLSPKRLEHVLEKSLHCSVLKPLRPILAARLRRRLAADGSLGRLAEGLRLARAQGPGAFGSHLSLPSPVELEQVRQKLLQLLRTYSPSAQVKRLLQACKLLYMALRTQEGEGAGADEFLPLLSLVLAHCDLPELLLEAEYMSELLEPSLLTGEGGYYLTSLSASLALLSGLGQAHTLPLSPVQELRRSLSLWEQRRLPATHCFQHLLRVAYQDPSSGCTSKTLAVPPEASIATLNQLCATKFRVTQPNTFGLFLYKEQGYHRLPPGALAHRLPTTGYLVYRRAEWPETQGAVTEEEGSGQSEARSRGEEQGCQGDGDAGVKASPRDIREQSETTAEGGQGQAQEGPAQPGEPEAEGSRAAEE
Chain of FAD-linked sulfhydryl oxidase ALR (P55789 whole entry): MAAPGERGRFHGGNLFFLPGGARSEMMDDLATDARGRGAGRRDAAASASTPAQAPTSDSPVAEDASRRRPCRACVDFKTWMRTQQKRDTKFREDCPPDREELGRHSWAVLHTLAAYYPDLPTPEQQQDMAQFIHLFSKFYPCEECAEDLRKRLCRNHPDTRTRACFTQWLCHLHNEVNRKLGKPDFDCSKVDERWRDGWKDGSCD

In the case of `CC(C)c1ccc(NC(=O)CSc2nnc(CN3CCOCC3)n2C)cc1`, the IC50 [1] is reported as 14.2 µM (inactive).

For `COc1ccc(Oc2ccc(C(F)(F)F)cc2NC(=O)c2ccc(OC)cc2)cc1`, the IC50 [2] was < 0.368 µM (active), the EC50 [3] was > 53 µM (inactive) and the IC50 [4] was 7.95 µM (active).

For `Oc1cc2ccccc2cc1-c1nnc(S)o1`, the EC50 [5] was 10.3 µM (active), the EC50 [6] was 23.5 µM (active) and the EC50 [7] was > 150 µM (not active). The AC50 [8] was 301 nM (active), the IC50 [2] was 10.5 µM (active) and the EC50 [3] was > 53 µM (inactive). The IC50 [4] was 13.4 µM (active).

With `C=CCNc1ncnc2c1ncn2[C@H]1CN(Cc2ccc(-c3ccccc3)cc2)C[C@@H](CO)O1` the IC50 [1] was 24.2 µM (inactive).

For `COc1cccc(/C=C2\SC(=S)N(NC(=O)c3ccncc3)C2=O)c1`, the IC50 [9] was 12.6 µM (active).
